PubChem BioAssay (NCI)
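These data come from cells grown in 96-well plates and exposed to compound for 48 hours at five concentrations. TGI marks complete inhibition of growth.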

How the values were obtained:
Assay in all cases: NCI tumour cell line growth inhibition, 48 h
786-0 renal = tested on: 786-0 renal
A498 renal = tested on: A498 renal
A549 NSCLC = tested on: A549 NSCLC
ACHN renal = tested on: ACHN renal
CAKI-1 renal = tested on: CAKI-1 renal
COLO 205 colon = tested on: COLO 205 colon
DU-145 prostate = tested on: DU-145 prostate
EKVX NSCLC = tested on: EKVX NSCLC
HCC-2998 colon = tested on: HCC-2998 colon
HCT-116 colon = tested on: HCT-116 colon
HL-60(TB) leukemia = tested on: HL-60(TB) leukemia
HOP-62 NSCLC = tested on: HOP-62 NSCLC
HT29 colon = tested on: HT29 colon
K-562 leukemia = tested on: K-562 leukemia
KM12 colon = tested on: KM12 colon
M14 melanoma = tested on: M14 melanoma
MCF7 breast = tested on: MCF7 breast
MDA-MB-231 breast = tested on: MDA-MB-231 breast
MDA-MB-435 = tested on: MDA-MB-435
MDA-N = tested on: MDA-N
MOLT-4 leukemia = tested on: MOLT-4 leukemia
NCI-H226 lung = tested on: NCI-H226 lung
NCI-H460 lung = tested on: NCI-H460 lung
OVCAR-3 ovarian = tested on: OVCAR-3 ovarian
OVCAR-4 ovarian = tested on: OVCAR-4 ovarian
OVCAR-5 ovarian = tested on: OVCAR-5 ovarian
PC-3 prostate = tested on: PC-3 prostate
RPMI-8226 leukemia = tested on: RPMI-8226 leukemia
RXF 393 renal = tested on: RXF 393 renal
SF-295 CNS = tested on: SF-295 CNS
SK-MEL-2 melanoma = tested on: SK-MEL-2 melanoma
SK-MEL-28 melanoma = tested on: SK-MEL-28 melanoma
SK-MEL-5 melanoma = tested on: SK-MEL-5 melanoma
SK-OV-3 ovarian = tested on: SK-OV-3 ovarian
SN12C renal = tested on: SN12C renal
SNB-19 CNS = tested on: SNB-19 CNS
SNB-75 CNS = tested on: SNB-75 CNS
SW-620 colon = tested on: SW-620 colon
T-47D breast = tested on: T-47D breast
TK-10 renal = tested on: TK-10 renal
U251 CNS = tested on: U251 CNS
UACC-257 melanoma = tested on: UACC-257 melanoma
UACC-62 melanoma = tested on: UACC-62 melanoma
UO-31 renal = tested on: UO-31 renal
CCRF-CEM leukemia = tested on: CCRF-CEM leukemia
HCT-15 colon = tested on: HCT-15 colon
HOP-92 NSCLC = tested on: HOP-92 NSCLC
HS 578T breast = tested on: HS 578T breast
IGROV1 ovarian = tested on: IGROV1 ovarian
LOX IMVI melanoma = tested on: LOX IMVI melanoma
NCI-H23 lung = tested on: NCI-H23 lung
NCI-H522 lung = tested on: NCI-H522 lung
NCI/ADR-RES ovarian = tested on: NCI/ADR-RES ovarian
OVCAR-8 ovarian = tested on: OVCAR-8 ovarian
SF-268 CNS = tested on: SF-268 CNS
SF-539 CNS = tested on: SF-539 CNS
SR leukemia = tested on: SR leukemia

With `COP(=O)(OC)C(O)CC(C)C` (stereo not given) the TGI (786-0 renal) was > 100 µM, the TGI (A498 renal) was > 100 µM and the TGI (A549 NSCLC) was > 100 µM. For the same compound, the TGI (ACHN renal) was > 100 µM, the TGI (CAKI-1 renal) was > 100 µM and the TGI (COLO 205 colon) was > 100 µM. For the same compound, the TGI (DU-145 prostate) was > 100 µM, the TGI (EKVX NSCLC) was > 100 µM and the TGI (HCC-2998 colon) was > 100 µM. For the same compound, the TGI (HCT-116 colon) was > 100 µM, the TGI (HL-60(TB) leukemia) was > 100 µM and the TGI (HOP-62 NSCLC) was > 100 µM. The TGI (HT29 colon) was > 100 µM, the TGI (K-562 leukemia) was > 100 µM and the TGI (KM12 colon) was > 100 µM. For the same compound, the TGI (M14 melanoma) was > 100 µM, the TGI (MCF7 breast) was > 100 µM and the TGI (MDA-MB-231 breast) was > 100 µM. The TGI (MDA-MB-435) was > 100 µM, the TGI (MDA-N) was > 100 µM and the TGI (MOLT-4 leukemia) was > 100 µM. For the same compound, the TGI (NCI-H226 lung) was > 100 µM, the TGI (NCI-H460 lung) was > 100 µM and the TGI (OVCAR-3 ovarian) was > 100 µM. For the same compound, the TGI (OVCAR-4 ovarian) was > 100 µM, the TGI (OVCAR-5 ovarian) was > 100 µM and the TGI (PC-3 prostate) was > 100 µM. For the same compound, the TGI (RPMI-8226 leukemia) was > 100 µM, the TGI (RXF 393 renal) was > 100 µM and the TGI (SF-295 CNS) was > 100 µM. The TGI (SK-MEL-2 melanoma) was > 100 µM, the TGI (SK-MEL-28 melanoma) was > 100 µM and the TGI (SK-MEL-5 melanoma) was > 100 µM. The TGI (SK-OV-3 ovarian) was > 100 µM, the TGI (SN12C renal) was > 100 µM and the TGI (SNB-19 CNS) was > 100 µM. For the same compound, the TGI (SNB-75 CNS) was > 100 µM, the TGI (SW-620 colon) was > 100 µM and the TGI (T-47D breast) was > 100 µM. For the same compound, the TGI (TK-10 renal) was > 100 µM, the TGI (U251 CNS) was > 100 µM and the TGI (UACC-257 melanoma) was > 100 µM. For the same compound, the TGI (UACC-62 melanoma) was > 100 µM and the TGI (UO-31 renal) was > 100 µM.
`CC1=CC(=O)CC(C)(C)C1/C=C/C(C)=C/C=C/C(C)=C/C=C/C=C(C)/C=C/C=C(C)/C=C/C1=C(C)CC(O)CC1(C)C` (stereo not given) was tested, and the TGI (786-0 renal) was 72.5 µM, the TGI (A498 renal) was > 100 µM and the TGI (ACHN renal) was 74.3 µM. For the same compound, the TGI (CAKI-1 renal) was > 100 µM, the TGI (CCRF-CEM leukemia) was > 100 µM and the TGI (DU-145 prostate) was > 100 µM. For the same compound, the TGI (EKVX NSCLC) was > 100 µM, the TGI (HCC-2998 colon) was 99.1 µM and the TGI (HCT-116 colon) was 37.4 µM. For the same compound, the TGI (HCT-15 colon) was 73.4 µM, the TGI (HL-60(TB) leukemia) was > 100 µM and the TGI (HOP-62 NSCLC) was > 100 µM. The TGI (HOP-92 NSCLC) was 70.9 µM, the TGI (HS 578T breast) was > 100 µM and the TGI (HT29 colon) was > 100 µM. For the same compound, the TGI (IGROV1 ovarian) was > 100 µM, the TGI (K-562 leukemia) was 27.1 µM and the TGI (KM12 colon) was > 100 µM. The TGI (LOX IMVI melanoma) was > 100 µM, the TGI (M14 melanoma) was > 100 µM and the TGI (MCF7 breast) was 45.3 µM. The TGI (MDA-MB-231 breast) was > 100 µM, the TGI (MDA-MB-435) was 84.8 µM and the TGI (MDA-N) was > 100 µM. The TGI (MOLT-4 leukemia) was 1.6 µM, the TGI (NCI-H226 lung) was > 100 µM and the TGI (NCI-H23 lung) was > 100 µM. The TGI (NCI-H460 lung) was > 100 µM, the TGI (NCI-H522 lung) was 72.7 µM and the TGI (NCI/ADR-RES ovarian) was > 100 µM. The TGI (OVCAR-3 ovarian) was 72.1 µM, the TGI (OVCAR-4 ovarian) was > 100 µM and the TGI (OVCAR-5 ovarian) was > 100 µM. The TGI (OVCAR-8 ovarian) was > 100 µM, the TGI (PC-3 prostate) was > 100 µM and the TGI (RPMI-8226 leukemia) was 27.9 µM. For the same compound, the TGI (RXF 393 renal) was 52.7 µM, the TGI (SF-268 CNS) was > 100 µM and the TGI (SF-295 CNS) was > 100 µM. The TGI (SF-539 CNS) was > 100 µM, the TGI (SK-MEL-2 melanoma) was > 100 µM and the TGI (SK-MEL-28 melanoma) was > 100 µM. The TGI (SK-MEL-5 melanoma) was > 100 µM, the TGI (SK-OV-3 ovarian) was > 100 µM and the TGI (SR leukemia) was 4.52 µM. For the same compound, the TGI (SW-620 colon) was 33.2 µM, the TGI (T-47D breast) was > 100 µM and the TGI (TK-10 renal) was > 100 µM. The TGI (U251 CNS) was > 100 µM, the TGI (UACC-257 melanoma) was > 100 µM and the TGI (UO-31 renal) was > 100 µM.
